Patent US20040138826A1, “Experimental design and data analytical methods for detecting and characterizing interactions and interaction thresholds on fixed ratio rays of polychemical mixtures and subsets thereof” (priority 2002, published 2004)
Where two headings read alike, the source gives them in different places.

Columns and labels:
female CD-1 mice = experiment: Liver damage by serum sorbitol dehydrogenase (SDH) after 14 days oral gavage of trihalomethane DBPs; details: for Estimate of slope parameter γi, additivity model for SDH response: generalized linear model with power link, λ = 0.5, single chemical data only, female CD-1 mice, 14 days oral gavage; for Mean SDH (STD): positive control
Method: The mixture selected for the study used to illustrate the methodology proposed here is that of four trihalomethanes formed as disinfection by-products (DBPs) when water is chlorinated. […] The endpoint of interest is liver damage, as measured by serum sorbitol dehydrogenase (SDH) levels in female CD-1 mice after 14 days of exposure by oral gavage. Seven separate experiments were conducted: four single chemical studies and three mixture studies. A more complete description of the experimental methods is provided in Gennings, et al. (1997; 2000). […] The fixed mixing ratio of interest is associated with the chlorination process of disinfection (McDonald et al., 1999). The purpose of this study was to determine if the four DBPs combine additively, i.e., with no interaction.
The data used to illustrate the methodology developed in the following sections involves the combination of four chemicals, which are disinfection by-products in drinking water. Summary statistics for the single chemical data are provided in Gennings et al. (1997, 2000). A generalized linear model with a power link function, [formula]
After the single chemical studies were completed, three mixture studies were conducted. […] In order to verify that the dose-response relationship was consistent across the different studies, the additivity model given in (1) was used to predict the response for each of the positive control groups. […] The p-value is associated with the Wald-type test for equivalence of the two means.
The objective of this paper is to develop a method for testing for departure from additivity when the single chemical data cannot be used to describe the no interaction case. The mixture data of interest are assumed to result from a fixed-ratio ray design.

[1] = test system: normal human epidermal keratinocytes (NHEK); details: for LD50 (estimated): Example 6; for LD50 (50% cell killing in individual cytotoxicity assays): predetermined, Example 5; for Sample Mean (% viability): single metal, 24 hr
Method: Cells and culture conditions. Cryopreserved, pooled normal human epidermal keratinocytes (NHEK) were purchased from the Clonetics Corp. (San Diego, Calif.). NHEK cells were grown in defined Keratinocyte Growth Medium-KGM™ (Clonetics).
Cytotoxicity analyses. For toxicity studies, cells were plated at a density of 2,500 cells/cm^2 in 6-well plastic tissue culture plates and grown for 24 hr before metal treatment. Triplicate wells of cells were treated with increasing concentrations of As, Cr, Cd, Pb, or a mixture of the four metals for 24 hr. Concentrations used for As and Cr were 0.3, 1, 3, 10 , and 100 mM. The Cr stock was made by mixing a 1:1 ratio of trivalent and hexavalent chromium. Cd and Pb were administered at 3, 10, 30, 100, and 300 mM. […] The concentrations of these three metals in the 1× mixture solution was 7.7 mM As, 4.9 mM Cr, 6.1 mM Cd. […] This 1× solution was serially diluted at a 1:3 ratio to get 0.333, 0.111, 0.037, 0.0123, 0.004, and 0.0014 dilution groups. Double deionized water was used as the vehicle control in all cases. After exposure to the individual metals or metal mixture, cells were refed with fresh metal-free KGM medium and incubated for 3 days prior to viability analysis by the MTT assay.
MTT assay. The MTT assay was carried out using a modification of the method of Mosmann (1983). MTT was dissolved at 5 mg/ml in 1× PBS [phosphate-buffered saline]. This stock solution was filtered through a […] and stored at 4° C. Immediately before use, the stock solution was diluted to 0.5 mg/ml with serum-free KGM to make a working solution. Working solution (1 ml) was added to each well of cells after aspiration of medium. Cells were incubated at 37° C. for 3 hr, after which time, the MTT was removed by aspiration. Cells were subsequently lysed by addition of 0.5 ml of dimethyl sulfoxide (DMSO). The absorbence at 550 nm of samples as well as a DMSO blank was read on a Microplate Autoreader (Bio-Tek Instruments, Inc, Winooski, Vt.). The absorbance of the DMSO blank was subtracted from all values. All absorbance values were standardized to the water vehicle control.
The methodology introduced in this paper is illustrated with cytotoxicity data obtained from assessing interactions among arsenic (As), cadmium (Cd), chromium (Cr), and lead (Pb) in human keratinocytes. The experimental data were obtained from Ray Yang and colleagues at Colorado State University. The endpoint of interest is the percent viability of treated NHEK cells using the MTT assay. […] This 1× solution was serially diluted at a 1:3 ratio to get 0.333, 0.111, 0.037, 0.0123, 0.004, and 0.0014 dilution groups. Double deionized water was used as the vehicle control in all cases.
After exposure to individual metals or metal exposure, cells were refed with fresh metal-free KGM medium and incubated for 3 days prior to viability analysis by the MTT assay. Details of the experimental protocol and methods are described elsewhere (24, 1) and are not included here.

[2] = 1.52 mM/kg, mixture study = 0.05 total dose
[3] = 1.52 mM/kg, mixture study = 1.5 total dose
[4] = 1.52 mM/kg, mixture study = 3.0 total dose

ClC(Cl)Br [BDCM, bromodichloromethane]
Estimate of slope parameter γi, additivity model for SDH response (female CD-1 mice): 3.567
Mean SDH (STD) (female CD-1 mice; [2]): 107.3 (97.5)
Mean SDH (STD) (female CD-1 mice; [3]): 56.0 (17.4)
Mean SDH (STD) (female CD-1 mice; [4]): 48.8 (23.3)

ClC(Br)Br [CDBM, chlorodibromomethane]
Estimate of slope parameter γi, additivity model for SDH response (female CD-1 mice): 3.833
Mean SDH (STD) (female CD-1 mice; 0.76 mM/kg, mixture study = 0.05 total dose): 38.0 (11.2)
Mean SDH (STD) (female CD-1 mice; 0.76 mM/kg, mixture study = 1.5 total dose): 28.1 (6.7)
Mean SDH (STD) (female CD-1 mice; 0.76 mM/kg, mixture study = 3.0 total dose): 19.3 (3.6)

BrC(Br)Br [CHBr3, bromoform]
Estimate of slope parameter γi, additivity model for SDH response (female CD-1 mice): 2.441
Mean SDH (STD) (female CD-1 mice; [2]): 64.0 (27.8)
Mean SDH (STD) (female CD-1 mice; [3]): 56.0 (24.8)
Mean SDH (STD) (female CD-1 mice; [4]): 86.4 (89.2)

ClC(Cl)Cl [CHCl3, chloroform]
Estimate of slope parameter γi, additivity model for SDH response (female CD-1 mice): 1.538
Mean SDH (STD) (female CD-1 mice; [2]): 63.1 (34.9)
Mean SDH (STD) (female CD-1 mice; [3]): 46.6 (21.5)
Mean SDH (STD) (female CD-1 mice; [4]): 24.3 (5.8)

[Cl][Cd][Cl] [Cadmium, cadmium chloride]
LD50 (estimated) [1]: 6.1 µM
LD50 (50% cell killing in individual cytotoxicity assays) [1]: 6.1 mM
Sample Mean (% viability) ([1]; dose 3 (mM)): 92.6 % viability
Sample Mean (% viability) ([1]; dose 10 (mM)): 51.9 % viability
Sample Mean (% viability) ([1]; dose 30 (mM)): 20.2 % viability
Sample Mean (% viability) ([1]; dose 100 (mM)): 3.8 % viability
Sample Mean (% viability) ([1]; dose 300 (mM)): 4.6 % viability

[Cr] [Chromium]
LD50 (estimated) [1]: 4.9 µM
LD50 (50% cell killing in individual cytotoxicity assays) [1]: 4.9 mM
Sample Mean (% viability) ([1]; dose 0.3 (mM)): 105.1 % viability
Sample Mean (% viability) ([1]; dose 1.0 (mM)): 99.7 % viability
Sample Mean (% viability) ([1]; dose 3 (mM)): 79.8 % viability
Sample Mean (% viability) ([1]; dose 10 (mM)): 23.9 % viability
Sample Mean (% viability) ([1]; dose 30 (mM)): 6.6 % viability

CC(=O)[O-].CC(=O)[O-].[Pb+2] [Lead, lead acetate]
LD50 (estimated) [1]: 100 µM
cell killing ([1]; individual cytotoxicity assay): unable to get complete killing at any dose tested
Sample Mean (% viability) ([1]; dose 3 (mM)): 95.5 % viability
Sample Mean (% viability) ([1]; dose 10 (mM)): 91.0 % viability
Sample Mean (% viability) ([1]; dose 30 (mM)): 98.8 % viability
Sample Mean (% viability) ([1]; dose 100 (mM)): 93.7 % viability
Sample Mean (% viability) ([1]; dose 300 (mM)): 28.9 % viability
